Laboratory results published in US20220387370A1, “METHODS OF REDUCING NEUROLOGICAL DAMAGE IN WILSON DISEASE PATIENTS” (priority 2019, published 2022).
Entries after “also recorded” stand apart in the source; their conditions may differ.

How the values were obtained:
Cu-albumin = Cu-albumin (Bos taurus, UniProt P02769)
Procedure: EPR spectra were recorded at 77 K using an ECS106 spectrometer (Brucker BioSpin, Karlsruhe, Germany) operating in X-band at about 9.5 GHz.

HepG2 cells [1] = assay: Cellular copper content (ICP-OES), HepG2; format: cell-based, human; details: 750 μM copper, 250 μM albumin, 750 μM chelator, vs Cu-albumin alone
Source text: (§1) Afterwards, cells were trypsinized and counted.

U87MG cells = U87MG cells subjected to respirometry (FIG. 6A), non-toxic Cu-albumin setting
Source text: as §1

EA.hy926 and U87MG cells = assay: Electron microscopy of mitochondrial structure; format: cell-based, human; details: electron micrographs, co-treatment with chelator
Source text: Electron microscopy of cells was done as previously described ([…]., et al., Cell Mol Gastroenterol Hepatol, 2018. 7(3): p. 571-596) on a 1200EX electron microscope (JEOL, […], Japan) at 60 kv. Pictures were taken with a […] digital camera (Olympus, Hamburg, Germany) and processed by the iTEM software package (analySIS FIVE, Olympus, Hamburg, Germany).

PBCEC monolayers = assay: TEER and capacitance of PBCEC monolayers (endothelial blood-brain barrier model); format: cell-based, porcine
Source text: (§2) For transepithelial resistance (TEER) experiments (Srinivasan, B., et al., J Lab Autom, 2015. 20(2): p. 107-26), cryopreserved primary porcine brain capillary endothelial cells (PBCECs) were thawed and seeded either on rat tail collagen-coated 96-well plates for cytotoxicity testing using the Neutral red assay (Repetto, G., A. del Peso, and J. L. Zurita, Nat Protoc, 2008. 3(7): p. 1125-31) or Transwell® inserts (area: 1.12 cm^2, pore size: 0.4 μm: Corning, N.Y., USA) for barrier integrity studies. Cells were cultured for 48 hours in Earle's Medium 199 supplemented with 10% FCS, 50 U penicillin/mL, 50 μg/mL streptomycin, 100 μg/mL gentamycin and 0.7 mM I-glutamine and maintained at 37° C. in a humidified atmosphere with 5% CO2. […] TEER and capacitance values were continuously monitored over 48 h using a CellZscope device (nanoAnalytics, Münster, Germany). Only PBCEC monolayers with initial TEER values >600Ωcm^2 and capacitance values between 0.45 and 0.6 μF/cm^2 were used for permeability studies (Bornhorst, J., et al., J Biol Chem, 2012. 287(21): p. 17140-51). The barrier integrity was calculated by normalizing the TEER values to the respective start values.

[2] = test system: tight junction protein claudin-5; assay: Immunocytochemistry staining of claudin-5 in PBCEC monolayers; format: cell-based, porcine; details: 250 μM copper and 83.3 μM albumin, 250 μM chelator
Procedure: (§3) Total copper was determined by ICP-MS/MS as previously described (Kopp, J. F., et al., J Trace Elem Med Biol, 2019. 54: p. 221-225). For the immunocytochemical staining of tight junction proteins, confluent PBCECs cultivated on Transwell® membrane inserts were processed as previously described ([…]., et al., Archives of Toxicology 2018. 92(2): p. 823-832). Briefly, PBCECs were fixed with formaldehyde and permeabilized using Triton X-100. After blocking of unspecific binding sites by albumin, the cells were incubated with the either anti-claudin 5 or anti-ZO-1 antibody (Zytomed Systems GmbH, Berlin, Germany). Following a second blocking step, the cells were treated with an Alexa Fluor® 488 conjugated secondary antibody (Invitrogen, Molecular Probes Inc., Eugene, USA). Hoechst 33258 (Merck, Darmstadt, Germany) was used to stain cell nuclei. Subsequently, membranes were cut out of the inserts and mounted in Aqua Poly/Mount (Polysciences Inc., Washington, USA). After a solidification period of 24 hours, the samples were evaluated using a DM6 B fluorescence microscope by Leica Microsystems CMS GmbH (Wetzlar, Germany) in combination with the Leica Application Suite X.

[3] = test system: primary porcine brain capillary endothelial cells (PBCECs); details: 750 μM copper and 250 μM albumin, 750 μM ALXN1840, 48 h
Source text: as §2

EA.hy926 cells = assay: High-resolution respirometry, EA.hy926; format: cell-based, human; details: EA.hy926, Cu-albumin-treated, vs Cu-albumin alone
Procedure: Oxygen consumption was assessed by high-resolution respirometry (HRR) using the Oxygraph-2k and DatLab 7.0 (Oroboros Instruments GmbH, Innsbruck, Austria) as described previously (Pesta, D. and E. Gnaiger, Methods Mol Biol, 2012. 810: p. 25-58). Per chamber, 1.5-2×10^6 living cells were supplied in 2 mL of MiR05 buffer (0.5 mM EGTA, 3 mM MgCl2, 60 mM lactobionic acid, 20 mM taurine, 10 mM KH2PO4, 20 mM HEPES, 110 mM sucrose, 1 g/L albumin, pH 7.1) and routine respiration was measured. Addition of 2.5 μM oligomycin (inhibitor of the FOF1-ATPase) enabled the measurement of leak respiration and stepwise addition of CCCP (1 μL steps from 1 mM stock solution) allowed the determination of the maximum oxygen flux and thereby the capacity of the electron transport system (ETS). The oxygen flux was baseline-corrected for non-mitochondrial oxygen consuming processes (ROX) by the addition of 2.5 μM of the complex III-inhibitor antimycin A.

[4] = test system: Zonula occludens-1 (ZO-1); assay: Immunocytochemistry staining of Zonula occludens-1 in PBCEC monolayers; format: cell-based, porcine; details: 250 μM copper and 83.3 μM albumin, 250 μM chelator
Procedure: as §3

HepG2 cells [5] = assay: Cu-albumin cell toxicity, CellTiter-Glo, HepG2; format: cell-based, human
Procedure: SHSY5Y (human neuroblastoma), U87MG (human astrocytoma), EA.hy926 (human endothelium) and HepG2 (human hepatocellular carcinoma) cells were from ATCC (Wesel, Germany) and were cultured in Dulbecco's Modified Eagle Medium (DMEM) supplemented with 10% FCS (Biochrom, Berlin, Germany) and 1% antibiotic-antimycotic (Life Technologies, Carlsbad, USA). All cells were maintained at 37° C. in a humidified atmosphere with 5% CO2.

Sequence of Cu-albumin (P02769 25-607): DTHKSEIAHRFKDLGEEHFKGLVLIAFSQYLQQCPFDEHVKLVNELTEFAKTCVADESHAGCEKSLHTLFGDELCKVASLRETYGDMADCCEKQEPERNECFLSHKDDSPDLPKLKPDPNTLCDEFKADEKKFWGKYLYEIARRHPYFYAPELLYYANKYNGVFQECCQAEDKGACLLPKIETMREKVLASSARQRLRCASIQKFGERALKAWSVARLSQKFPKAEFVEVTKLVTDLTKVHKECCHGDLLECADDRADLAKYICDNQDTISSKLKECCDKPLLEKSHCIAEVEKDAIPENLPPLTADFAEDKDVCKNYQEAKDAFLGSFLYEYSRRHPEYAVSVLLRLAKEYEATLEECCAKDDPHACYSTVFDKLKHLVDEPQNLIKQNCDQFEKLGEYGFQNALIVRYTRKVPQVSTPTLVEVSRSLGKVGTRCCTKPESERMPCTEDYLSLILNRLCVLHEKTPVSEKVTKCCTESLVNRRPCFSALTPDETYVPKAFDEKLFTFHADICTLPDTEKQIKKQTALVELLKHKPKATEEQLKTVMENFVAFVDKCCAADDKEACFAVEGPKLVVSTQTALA

SMILES: C[N+](C)(C)CCO.C[N+](C)(C)CCO.[SH-].[SH-].[S]=[Mo]=[S] [ALXN1840, bis-choline tetrathiomolybdate]
- drop of signal intensity of EPR-active cupric copper (Cu-albumin; TPC versus Cu-albumin): around 50%
- copper redox status in the tripartite complex (EPR) (Cu-albumin; albumin, copper and ALXN1840): partial reduction of copper
- cellular copper content (HepG2 cells [1]): highly similar cellular copper contents; also recorded: this effect was not present
- cellular copper content (U87MG cells): significantly lower
- Cu-albumin-induced alterations of mitochondrial structure (EA.hy926 and U87MG cells): partially avoided these structural abnormalities; also recorded: partially reversed
- transepithelial electrical resistance (TEER) (PBCEC monolayers; 250 μM copper and 83.3 μM albumin, 250 μM chelator, 48 h): stable TEER values for 48 h; also recorded: could be rescued
- capacitance values (PBCEC monolayers; Cu-albumin treatment in the absence or presence of chelator): unaffected
- claudin-5 staining pattern / copper-induced gap formation [2]: continuous and uninterrupted; also recorded: less pronounced
- cell viability (neutral red) [3]: could be rescued
- mitochondrial respiration (ETS) (EA.hy926 cells): significantly increased
- respiratory control ratio E/L (ETS to leak respiration) (EA.hy926 cells): significantly increased
- ZO-1 distribution (uneven, diffuse staining upon Cu-albumin) [4]: could be fully protected; also recorded: prevented
- CellTiterGlo-assessed cell viability / Cu-albumin toxicity (HepG2 cells [5]; HepG2, 750 μM chelator): protected
- CellTiterGlo-assessed cell viability / Cu-albumin toxicity (HepG2 cells [5]; HepG2, low dose of chelator (250 μM)): partially rescued
